# In paper doi:10.1101/2024.10.09.617372v4, “Cholesterol differentially modulates the activity of opioid and muscarinic receptors via a common binding site” (biorxiv, 2025):
# Target: T1, M2 muscarinic receptor (M2) (Homo sapiens, UniProt P08172)
# T1 construct: gene CHRM2; full-length human receptor, cDNA from Missouri S&T cDNA Resource Center, expressed in CHO cells; membranes
# T1 sequence (P08172 1-466): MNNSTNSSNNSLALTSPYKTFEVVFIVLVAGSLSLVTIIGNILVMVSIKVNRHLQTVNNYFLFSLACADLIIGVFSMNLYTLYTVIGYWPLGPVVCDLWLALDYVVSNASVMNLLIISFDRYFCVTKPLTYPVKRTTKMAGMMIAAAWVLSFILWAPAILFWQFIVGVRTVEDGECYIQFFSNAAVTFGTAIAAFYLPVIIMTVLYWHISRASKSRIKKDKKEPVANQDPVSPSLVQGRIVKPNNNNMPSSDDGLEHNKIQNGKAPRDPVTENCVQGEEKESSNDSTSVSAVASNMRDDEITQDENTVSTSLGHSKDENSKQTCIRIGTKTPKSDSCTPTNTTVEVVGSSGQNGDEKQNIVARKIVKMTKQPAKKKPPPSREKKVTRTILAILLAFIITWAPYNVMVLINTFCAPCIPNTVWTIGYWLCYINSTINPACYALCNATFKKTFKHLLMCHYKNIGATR
# Assay: radioligand saturation binding, CHO membranes
# Conditions: labelled compound; […] h, […] °C, pH […]
smiles,measurement,value
C[N+]1(C)[C@@H]2C[C@@H](OC(=O)[C@H](CO)c3ccccc3)C[C@H]1[C@@H]1O[C@@H]12 [[3H]N-methylscopolamine],KD,"equilibrium dissociation constant KD, expressed in nM, of [^3H]NMS (muscarinic)"
